Measured values published in US5189058A, “Iminodicarbonic, iminodicarbonodithioic, and thiocarbonylcarbamic acid esters useful as ACAT inhibitors” (Warner-Lambert Company, priority 1991, dated 1993).
Read-outs that look alike come from different tables or passages of the source.

Experiments:
[1] = in vivo screen designated APCC (blood cholesterol in rats on high fat, high cholesterol diet); details: Rattus norvegicus, 16 h, male Sprague-Dawley rats, 30 mg/kg in CMC/Tween at 4 PM, PCC diet (0.5% cholic acid) overnight, sacrificed 8 AM, read-out: % Change (mg/dl)
Experimental: In one in vivo screen designated APCC, male Sprague-Dawley rats (200 to 225 g) were randomly divided into treatment groups and dosed at 4 PM with either vehicle (CMC/Tween) or suspensions of compounds in vehicle at a dose of 30 mg/kg. The normal chow diet was then replaced with a high fat, high cholesterol diet (designated PCC) containing 0.5% cholic acid. The rats consumed this diet ad libitum during the night and were sacrificed at 8 AM to obtain blood samples for cholesterol analysis using standard procedures. Statistical differences between mean cholesterol values for the same vehicle were determined using analysis of variance followed by Fisher's least significant test.

[2] = target: T1, acyl-CoA: cholesterol acyltransferase (ACAT) (Oryctolagus cuniculus, UniProt G1SFD9); experiment: in vitro ACAT inhibition (radiolabeled cholesterol oleate formed from radiolabeled oleic acid, rabbit intestinal microsomes); assay type: biochemical
T1 sequence (G1SFD9 1-524): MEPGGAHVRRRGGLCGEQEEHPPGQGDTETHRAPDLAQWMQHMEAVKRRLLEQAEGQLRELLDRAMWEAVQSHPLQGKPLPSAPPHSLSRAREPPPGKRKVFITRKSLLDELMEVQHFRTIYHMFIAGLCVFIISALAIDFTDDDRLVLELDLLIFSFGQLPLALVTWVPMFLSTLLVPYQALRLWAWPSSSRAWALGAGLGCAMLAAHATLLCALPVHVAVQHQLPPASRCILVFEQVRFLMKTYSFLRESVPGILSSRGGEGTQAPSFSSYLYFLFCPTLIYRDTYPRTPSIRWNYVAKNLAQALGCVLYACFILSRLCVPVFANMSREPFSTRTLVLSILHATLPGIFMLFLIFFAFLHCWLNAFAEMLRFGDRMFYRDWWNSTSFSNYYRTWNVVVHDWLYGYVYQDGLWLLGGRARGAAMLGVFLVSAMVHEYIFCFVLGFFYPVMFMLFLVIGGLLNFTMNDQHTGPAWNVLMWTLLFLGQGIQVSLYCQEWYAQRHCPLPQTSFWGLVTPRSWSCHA
Experimental: The ability of representative compounds of the present invention to inhibit ACAT was measured using an in vitro test more fully described in F. J. Field and R. G. Salone, Biochemica et Biophysica 712:557-570 (1982). The test assesses the ability of a test compound to inhibit the acylation of cholesterol by oleic acid by measuring the amount of radiolabeled cholesterol oleate formed from radiolabeled oleic acid in a tissue preparation containing rabbit intestinal microsomes.

[3] = rabbit intestinal microsomes, acylation of cholesterol by oleic acid, read-out: IC50

| Compound | change in vivo at 30 mg/kg [1] | IC50 [2, 3] | IC50 [2] |
| --- | --- | --- | --- |
| CCCCCCCCCCCCC(C)OC(=O)NC(=O)Oc1c(C(C)C)cccc1C(C)C (racemic) [Example 3, Iminodicarbonic acid, 2,6-bis(1-methylethyl)phenyl 1-methyltridecyl ester, (±)] | -50% | – | – |
| CCCCCC(C)OC(=O)NC(=O)Oc1c(C(C)C)cccc1C(C)C (racemic) [Example 9, Iminodicarbonic acid, 2,6-bis(1-methylethyl)phenyl 1-methylhexyl ester, (± )] | -60% | – | – |
| CC(C)c1cccc(C(C)C)c1OC(=O)NC(=O)OC(c1ccccc1)c1ccccc1 [Example 1, Iminodicarbonic acid, 2,6-bis(1-methylethyl)phenyldiphenylmethyl ester] | -13% | – | – |
| CCCCCCCCCCCCOC(=O)NC(=O)Oc1c(C(C)C)cccc1C(C)C [Example 2, Iminodicarbonic acid, dodecyl 2,6-bis(1-methylethyl)phenyl ester] | -52% | – | – |
| CCCCCCCCCCCCC(C)(C)OC(=O)NC(=O)Oc1c(C(C)C)cccc1C(C)C [Example 4, Iminodicarbonic acid, 2,6-bis(1-methylethyl)phenyl 1,1-dimethyltridecyl ester] | -51% | – | – |
| CCCCC(C)(C)OC(=O)NC(=O)Oc1c(C(C)C)cccc1C(C)C [Example 5, Iminodicarbonic acid, 2,6-bis(1-methylethyl)phenyl 1,1-dimethylpentyl ester] | -29% | – | – |
| CCCCCCOC(=O)NC(=O)Oc1c(C(C)C)cccc1C(C)C [Example 6, Iminodicarbonic acid, 2,6-bis(1-methylethyl)phenyl hexyl ester] | -38% | 93 nM | – |
| CCCCC[C@H](C)OC(=O)NC(=O)Oc1c(C(C)C)cccc1C(C)C [Example 7, Iminodicarbonic acid, 2,6-bis(1-methylethyl)phenyl 1-methylhexyl ester (S)] | -25% | – | – |
| CCCCC[C@@H](C)OC(=O)NC(=O)Oc1c(C(C)C)cccc1C(C)C [Example 8, Iminodicarbonic acid, 2,6-bis(1-methylethyl)phenyl 1-methylhexyl ester (R)] | -49% | – | – |
| CCCCCCCCCCCCCCCCOC(=O)NC(=O)Oc1c(C(C)C)cccc1C(C)C [Example 10, Iminodicarbonic acid, 2,6-bis(1-methylethyl)phenyl hexadecyl ester] | -70% | 50 nM | – |
| CCCCCCCCCCCOC(=O)NC(=O)Oc1c(C(C)C)cccc1C(C)C [Example 11, Iminodicarbonic acid, 2,6-bis(1-methylethyl)phenyl undecyl ester] | -65% | – | – |
| CCCCCCCCCCCCCCCCCCOC(=O)NC(=O)Oc1c(C(C)C)cccc1C(C)C [Example 12, Iminodicarbonic acid, 2,6-bis(1-methylethyl)phenyl octadecyl ester] | -34% | 1200 nM | – |
| CCCCCCCC(C)OC(=O)NC(=O)Oc1c(C(C)C)cccc1C(C)C (stereo not drawn) [Example 13] | -56% | – | – |
| CCCCCCCCC(C)OC(=O)NC(=O)Oc1c(C(C)C)cccc1C(C)C (stereo not drawn) [Example 14, Iminodicarbonic acid, 2,6-bis(1-methylethyl)phenyl 1-methylnonyl ester] | -54% | – | – |
| CCCCCCCCCCC(C)OC(=O)NC(=O)Oc1c(C(C)C)cccc1C(C)C (stereo not drawn) [Example 15, Iminodicarbonic acid, 2,6-bis(1-methylethyl)phenyl 1-methylundecyl ester] | -66% | – | – |
| CCCCCCCCOC(=O)NC(=O)Oc1c(C(C)C)cccc1C(C)C [Example 16, Iminodicarbonic acid, 2,6-bis(1-methylethyl)phenyl octyl ester] | -47% | – | – |
| CCCCCCCCCCOC(=O)NC(=O)Oc1c(C(C)C)cccc1C(C)C [Example 17, Iminodicarbonic acid, 2,6-bis(1-methylethyl)phenyl decyl ester] | -43% | – | – |

| Compound | change in vivo at 30 mg/kg [1] | IC50 [2, 3] | IC50 [2] |
| --- | --- | --- | --- |
| CCCCCCCCCCCCSC(=O)NC(=O)Oc1c(C(C)C)cccc1C(C)C [Example 18, [(Dodecylthio)carbonyl] -carbamic acid, 2,6-bis(1-methylethyl)phenyl ester] | -63% | 28 nM | – |
| CC(C)c1cccc(C(C)C)c1OC(=O)NC(=O)Sc1c(C(C)C)cccc1C(C)C [Example 19, 2,6-Bis[[(1-methylethyl)phenyl]thio]carbamic acid, 2,6-bis(1-methylethyl)phenyl ester] | -20% | – | – |
| CCCCCCCCCCSC(=O)NC(=O)Oc1c(C(C)C)cccc1C(C)C [Example 20, [(Decylthio)carbonyl]carbamic acid, 2,6-bis(1-methylethyl)phenyl ester] | -52% | – | – |
| CC(C)c1cccc(C(C)C)c1OC(=O)NC(=O)Oc1c(C(C)C)cccc1C(C)C [Example 24, Iminodicarbonic acid, di[2,6-bis(1-methylethyl)phenyl]ester] | -43% | – | – |
| COC(=O)C(OC(=O)NC(=O)Oc1c(C(C)C)cccc1C(C)C)c1ccccc1 (stereo not drawn) [Example 25, α-[[[[[2,6-Bis(1-methylethyl)phenoxy]carbonyl]amino]carbonyl]oxy]benzeneacetic acid, methyl ester] | -12% | – | – |
| CC(C)c1cccc(C(C)C)c1OC(=O)NC(=O)Oc1cccc2ccccc12 [Example 26, Iminodicarbonic acid, [2,6-bis(1-methylethyl)phenyl](1-naphthalenyl) ester] | -11% | 1200 nM | – |
| CC(C)c1cccc(C(C)C)c1OC(=O)NC(=O)Oc1ccccc1 [Example 27, Iminodicarbonic acid, 2,6-bis(1-methylethyl)phenyl phenyl ester] | – | 3700 nM | – |
| CC(C)c1cccc(C(C)C)c1OC(=O)NC(=O)Sc1ccccc1 [Example 28] | -19% | 1800 nM | – |
| CCCCCCCCCCCCOC(=O)NC(=O)Oc1c(OC)cc(OC)cc1OC [Example 29, Iminodicarbonic acid, dodecyl 2,4,6-trimethoxyphenyl ester] | – | > 5000 nM | – |
| CCCCCCCCCCCCC(C)OC(=O)NC(=O)Oc1ccc(F)cc1F (stereo not drawn) [Example 30, Iminodicarbonic acid, 2,4-difluorophenyl 1-methyltridecyl ester] | -15% | > 5000 nM | – |
| CCCCCCCCCCCCSC(=O)NC(=O)Sc1c(C(C)C)cccc1C(C)C [Example 31, Iminodicarbonodithioic acid, 5-[2,6-bis(1-methylethyl)phenyl] S'-dodecyl ester] | -35% | > 1000 nM | – |
| O=C(NC(=O)Oc1c(-c2ccccc2)cccc1-c1ccccc1)Oc1c(-c2ccccc2)cccc1-c1ccccc1 [Example 32, Iminodicarbonic acid, di[1,1'[3',1"-terphenyl]-2-yl]ester] | -36% | 10400 nM | – |
| Cc1cccc(C)c1SC(=O)NC(=O)Sc1c(C)cccc1C [Example 33, Iminodicarbonodithioic acid, S,S'-bis[2,6-bis(methyl)phenyl]ester] | -33% | 230 nM | – |
| CCCCCCCCCCCCOC(=O)NC(=O)Sc1c(C(C)C)cccc1C(C)C [Example 34, [[[2,6-Bis(1-methylethyl)phenyl]thio]carbonyl]carbamic acid, dodecyl ester] | – | > 5000 nM | – |
| CC(C)(C)c1cccc(C(C)(C)C)c1OC(=O)NC(=O)Oc1c(C(C)(C)C)cccc1C(C)(C)C [Example 35, Iminodicarbonic acid bis[2,6-bis(1,1-dimethylethyl)phenyl]ester] | -4% | – | – |
| O=C(NC(=O)OC(c1ccccc1)c1ccccc1)OC(c1ccccc1)c1ccccc1 [Example 36, Iminodicarbonic acid, di(diphenylmethyl)ester] | – | > 5000 nM | – |
| CCCCCCCCCCCCC(C)OC(=O)N(C)C(=O)Oc1c(C(C)C)cccc1C(C)C (stereo not drawn) [Example 37, Methyliminodicarbonic, 2,6-bis(1-methylethyl)phenyl 1-methyltridecyl ester] | -8% | – | 600 nM |
